The subject of one test is THP-1. As to the kind of experiment: blood-system cancer cell strain proliferation, Coulter Counter, THP1. To be noted: 0.05-50 mM, 7 days, D-glucose control. Format: cell-based. As to the method:
(2) Method: Total 6 kinds of cell strains, i.e., Myeloid (HL-60, THP-1, KG-1), T-cell (MT-2), and B-Cell (Daudi, KS-1), and 3 kinds of rare saccharides (i.e., D-psicose, D-altrose, and D-allose), were employed. The culture medium and the cells were prepared to be 1 mL in total and 1×10^5 in number, respectively. Then, the cell number at each of fourth day and seventh day was counted by using a Coulter Counter. Each rare saccharide was added at concentrations of 0.05, 0.5, 5 and 50 mM, while D-glucose was used as a control.
Culture Medium: FBS 10% added RPMI1460
Cultivation Conditions: 37° C., 5% CO2
Cultivation Vessel: FALCON, MULTIWELL, 12 wells
Number of Cultivation Days: 7 days
Saccharides Concentration: 0.05, 0.5, 5, 50 mM

The test system of test [1] is OVCAR3 (ovary cancer) cells. The experiment in a line: cell cycle analysis by flow cytometer. It is filed as cell-based, human. Conditions: D-allose 50 mM, cultured for 3 days; control 12.6%. As to the method:
(2) Method: The cell cycle was analyzed by using a flow cytometer. Cells used here were OVCAR3 (ovary cancer) cells. 1) The cells were treated with trypsin to prepare a cell suspension liquid. 2) The cells were inaculated into a plastic tissue with a diameter of 100 mm and cultured for 24 hours (overnight) in a CO2 incubator. 3) Two groups of the cells, i.e., one with a rare saccharide (D-allose 50 mM) and the other with no rare saccharides (with D-glucose as a control), were cultured for 3 days. 4) The separated cells were washed twice with PBS(−). 5) After centrifugation, 3 mL of PBS(−) was added and stirred by pipetting. 6) 7 mL of 100% ethanol was added, followed by fixation at 4° C. for 2 hours. 7) The liquid was subjected to centrifugation at 1500 rpm for 5 minutes. 8) The separated cells were washed twice with cold PBS(−). 9) After centrifugation, 200 μg/mL of RNase was added, followed by incubation at 37° C. for 30 minutes. 10) 0.5 mL of PI (propidum iodide) was added, followed by incubation for 15 minutes. 11) The cell number was measured by using a flow cytometer.
Background: A flow cytometer gives signals particle by particle.

Test [2] has as its system temporary eye ischemia model (rat). As to the kind of experiment: retina ischemia-reperfusion, glutamate by microdialysis. It is filed as in vivo. Conditions: D-allose 200 mg/kg intravenous before the ischemia. On the procedure:
(1) Purpose: This Example 6 is intended to study an influence of D-allose upon the retina in a temporary eye ischemia model (rat). (2) Method: The temporary eye ischemia model was prepared by raising the intraocular pressure up to a level of about 120 mmHg. The model was subjected to ischemia for 45 minutes and then to reperfusion. The concentration of glutamate released in the ischemia-reperfusion process was measured by the microdialysis method.

The subject of test [3] is glutamate release from hippocampus. The experiment in a line: temporary brain ischemia, glutamate outside hippocampus neurons by micro-dialysis. Format: in vivo, gerbil. As to the method:
(2) Method: The bilateral common carotid artery of a gerbil was shut off for 5 minutes. After 1 week, the gerbil was sacrificed and a sample was prepared in accordance with the ordinary method, followed by hematoxyline eosin dyeing. The survival rate was measured by counting the number of hippocampus neurons while looking at them under a microscope. Experiments were performed on a normal control group, a group subjected to only ischemia, and a group administrated with 200 mg/kg of D-allose or D-psicose before ischemia. It is known that glutamates released in large amount from the neurons with ischemia are toxic to the neurons. Such a point was examined by fixing the gerbil to a brain position fixing device, perfusing a solution, in which oxidase glutamate is dissolved, to the hippocampus through a probe for micro-dialysis, and measuring the glutamate concentration outside the hippocampus neurons. Also, the inventors have clarified the relationship between the metabolism of glucose and the action mechanism of D-allose with ischemia by pre-administrating D-allose and 2-deoxiglucose.

The next test deals with microglia migration. The experiment in a line: brain ischemia model, number of appearing microglias. Format: in vivo, gerbil. To be noted: 200 mg/kg femoral vein 5 minutes before and immediately after 5 minutes ischemia; after 1 week. As to the method:
In this Example 11 described below, an influence of ketohexose belonging to the rare saccharides upon the number of microglias appearing with ischemia is examined. […] D-psicose was used as the ketohexose belonging to the rare saccharides. As a brain ischemia model, the bilateral common carotid artery of a male gerbil with weight of about 70 g was shut off for 5 minutes. In this model, neurons in the hippocampus CA1 area of a brain are peculiarly brought to ischemic cell necrosis.
Comparative studies were made on three exemplified groups, i.e., one group not subjected to ischemia (control: Sham), another group subject to ischemia+treatment with physiological saline, and still another group subject to ischemia+treatment with D-psicose.
The D-psicose treatment was performed through the steps of dissolving D-psicose in physiological saline to prepare a D-psicose solution with concentration of 200 mg/mL, and administrating the D-psicose solution to the ischemia model through the femoral vein in units of 200 mg/kg at 5 minuets before ischemia and immediately after the ischemia. The physiological saline treatment was performed by administering only physiological saline instead of the D-psicose solution. After 1 week from the ischemia, perfusion fixation was made and a frozen brain sample of 20 μm was prepared, followed by hematoxyline eosin dyeing.

The test system of a further test is rat intestinal tract. The experiment in a line: glucose absorption in reversed intestinal tract. Conditions: D-psicose at concentration comparable to that of glucose. As to the method:
To clarify an influence of D-psicose upon the absorption of glucose, the influence of D-psicose upon the absorption of glucose was analyzed by using a rat intestinal tract. The absorption of glucose was analyzed by measuring concentrations outside and inside a mucous membrane of an intestinal tract by a quantitative manner based on the glucose oxidase method. How the absorption of glucose changed under coexistence of D-psicose and glucose was measured. Further, how a sugar absorption system changed was analyzed by using an intestinal tract of a rat administrated with D-psicose for a long time. […] After the lapse of a certain time, the solution on the serous membrane side was sampled and the glucose concentration was measured. By adding D-psicose at various concentrations, an influence of D-psicose upon transport of glucose from the mucous membrane side to the serous membrane side was studied.

A short description of test [4]: influence of psicose upon hyperglycemia. Format: in vivo, rat. To be noted: 0.5 g/kg intravenous; compared with deoxyglucose control. As to the method:
IVGTT was conducted on 8-week old male SD rats by inserting a catheter through the jugular vein, injecting 50% glucose at intervals of 20 minutes to make a hyperglycemic state, and then injecting psicose and deoxyglucose. A rare saccharide was administrated to 1 rat, and deoxyglucose was administrated to 1 rat.
Perform intravenous injection (IV) at 0.5 g/kg (i.e., 0.5 g/1000 g=500 mg/1000 g=0.5 mg/g).
Prepare rare-saccharide and deoxyglucose solutions in concentration of 0.5 g/mL (i.e., 0.5 g/1000 ul=500 mg/1000 ul=0.5 mg/ul). Prepare 2 mL of solution for each concentration.
Intravenously inject 200 ul of the solution for a 200 g rat.
Intravenously inject 250 ul of the solution for a 250 g rat.
Inject 300 ul of physiological saline after the intravenous injection.
Collect 150 ul of blood sample.
Collect blood at 9 points in time, i.e., 0, 5, 10, 15, 20, 25, 30, 45 and 60 minutes.

Structures are written as SMILES.

In the case of `O=C[C@H](O)[C@H](O)[C@H](O)[C@H](O)CO` [D-allose], the “THP1 proliferation inhibitory effect” value in the test on THP-1 was “showed a cell proliferation inhibitory effect at 59 mM”. The “proportion of the cells in G2-M stage of the cell cycle” value in test [1] is recorded as 22.6%. Further, the “glutamate concentration during the reperfusion” value in test [2] is reported as “completely inhibited”. The “glutamate concentration during the ischemia” value in test [2] (45 minutes ischemia, versus control) was “inhibited in comparison with that in the control”. For the same compound, the “inhibition rate of second peak of glutamate release (hyperperfusion after ischemia)” value in test [3] (administration of D-allose) is “about 90%”. Besides, the “inhibition rate of first peak of glutamate release (with ischemia)” value in test [3] (pre-administration of D-allose) is “about 25%”.

On to `O=C(CO)[C@H](O)[C@H](O)[C@H](O)CO` [D-psicose], for which, in the test with microglia migration, the “number of appearing microglias” value is recorded as “reduced”. Also, the “rise of glucose concentration on the serous membrane side” value in the test with rat intestinal tract is recorded as “significantly inhibited”. Moreover, in test [4], the “blood sugar value in hyperglycemic state” value is reported as “reduced more quickly” and the “insulin concentration in hyperglycemic state” value is on record as “an increase in the insulin secretion”.

The values above are taken from patent US8420606B2, “Method of utilizing physiological activity of rare saccharide and composition containing rare saccharide” (priority 2002, dated 2013).
